Test results from patent US20070049564A1 (Wyeth, priority 2005, published 2007).
Values after ≈ are worked out from the molar mass of the structure shown. Like-named read-outs stand apart in the source and are kept apart here.

Key:
E. coli = experiment: Range of MIC for E. coli strains; settings: Escherichia coli
S. aureus GC 2216 = experiment: MIC, broth microdilution; settings: Staphylococcus aureus
Staph. = experiment: Range of MIC for Staph. strains, including MRSA; settings: Staphylococcus aureus
E. coli GC 2235 = experiment: MIC, broth microdilution; settings: Escherichia coli
S. pyogenes GC 4563 = experiment: MIC, broth microdilution; settings: Streptococcus pyogenes
E. coli GC 2232 = experiment: MIC, broth microdilution; settings: Escherichia coli
E. faecalis GC 4555 = experiment: MIC, broth microdilution; settings: Enterococcus faecalis
E. faecalis GC 2242 = experiment: MIC, broth microdilution; settings: Enterococcus faecalis
S. pneumoniae* GC 4465 = experiment: MIC, broth microdilution; settings: Streptococcus pneumoniae
E. coli GC 4559 = experiment: MIC, broth microdilution; settings: Escherichia coli
E. coli GC 2231 = experiment: MIC, broth microdilution; settings: Escherichia coli
S. typhimurium GC 2172 = experiment: MIC, broth microdilution; settings: Salmonella enterica, TYPHIMURIUM
E. faecium GC 4556 = experiment: MIC, broth microdilution; settings: Enterococcus faecium
S. agalactiae GC 4564 = experiment: MIC, broth microdilution; settings: Streptococcus agalactiae
S. aureus GC 6466 = experiment: MIC, broth microdilution; settings: Staphylococcus aureus
E. coli GC 2236 = experiment: MIC, broth microdilution; settings: Escherichia coli
E. coli GC 2234 = experiment: MIC, broth microdilution; settings: Escherichia coli
S. pneumoniae+ GC 4465 = experiment: MIC, broth microdilution; settings: Streptococcus pneumoniae
S. aureus GC 4536 = experiment: MIC, broth microdilution; settings: Staphylococcus aureus
[1] = read-out: MINIMAL INHIBITORY CONCENTRATION MIC, Human Serum
[2] = read-out: MINIMAL INHIBITORY CONCENTRATION MIC, Mouse Serum
[3] = read-out: MINIMAL INHIBITORY CONCENTRATION MIC, Water

- MIC (E. coli; 20 h, read-out: Range of MIC, E. coli (Mouse Serum)): 1 to 2 µg/mL (≈ 1.26 to 2.53 µM)
- MIC (E. coli; read-out: Minimum inhibitory concentration (MIC), E. coli (Human Serum)): 32 to 64 µg/mL (≈ 40.4 to 80.8 µM)
- MIC (E. coli; read-out: Minimum inhibitory concentration (MIC), E. coli (water)): > 64 µg/mL
- MIC (E. coli; read-out: Range of MIC, E. coli (Water)): > 64 µg/mL
- MIC (S. aureus GC 2216; GC2216, read-out: MINIMAL INHIBITORY CONCENTRATION MIC, Human Serum): 0.5 µg/mL (≈ 0.631 µM)
- MIC (S. aureus GC 2216; GC2216, read-out: MINIMAL INHIBITORY CONCENTRATION MIC, Mouse Serum): 0.5 µg/mL (≈ 0.631 µM)
- MIC (S. aureus GC 2216; GC2216, read-out: MINIMAL INHIBITORY CONCENTRATION MIC, Water): 1 µg/mL (≈ 1.26 µM)
- MIC (Staph.; MRSA, read-out: Range of MIC, Staph (Mouse Serum)): 0.25 to 2 µg/mL (≈ 0.316 to 2.53 µM)
- MIC (Staph.; MRSA, read-out: Range of MIC, Staph (Water)): 1 to 4 µg/mL (≈ 1.26 to 5.05 µM)
- MIC (Staph.; read-out: Minimum inhibitory concentration (MIC), Staph (Human Serum)): 0.25 to 2 µg/mL (≈ 0.316 to 2.53 µM)
- MIC (Staph.; read-out: Minimum inhibitory concentration (MIC), Staph (Water)): 1 to 4 µg/mL (≈ 1.26 to 5.05 µM)
- MIC (E. coli GC 2235; GC2235, read-out: MINIMAL INHIBITORY CONCENTRATION MIC, Human Serum): 32 µg/mL (≈ 40.4 µM)
- MIC (E. coli GC 2235; GC2235, read-out: MINIMAL INHIBITORY CONCENTRATION MIC, Mouse Serum): 1 µg/mL (≈ 1.26 µM)
- MIC (E. coli GC 2235; GC2235, read-out: MINIMAL INHIBITORY CONCENTRATION MIC, Water): > 64 µg/mL
- MIC (S. pyogenes GC 4563; GC4563, read-out: MINIMAL INHIBITORY CONCENTRATION MIC, Human Serum): 2 µg/mL (≈ 2.53 µM)
- MIC (S. pyogenes GC 4563; GC4563, read-out: MINIMAL INHIBITORY CONCENTRATION MIC, Mouse Serum): 0.5 µg/mL (≈ 0.631 µM)
- MIC (S. pyogenes GC 4563; GC4563, read-out: MINIMAL INHIBITORY CONCENTRATION MIC, Water): 2 µg/mL (≈ 2.53 µM)
- MIC (E. coli GC 2232; GC2232, read-out: MINIMAL INHIBITORY CONCENTRATION MIC, Human Serum): 32 µg/mL (≈ 40.4 µM)
- MIC (E. coli GC 2232; GC2232, read-out: MINIMAL INHIBITORY CONCENTRATION MIC, Mouse Serum): 2 µg/mL (≈ 2.53 µM)
- MIC (E. coli GC 2232; GC2232, read-out: MINIMAL INHIBITORY CONCENTRATION MIC, Water): > 64 µg/mL
- MIC (E. faecalis GC 4555; GC4555, read-out: MINIMAL INHIBITORY CONCENTRATION MIC, Human Serum): 8 µg/mL (≈ 10.1 µM)
- MIC (E. faecalis GC 4555; GC4555, read-out: MINIMAL INHIBITORY CONCENTRATION MIC, Mouse Serum): 1 µg/mL (≈ 1.26 µM)
- MIC (E. faecalis GC 4555; GC4555, read-out: MINIMAL INHIBITORY CONCENTRATION MIC, Water): 16 µg/mL (≈ 20.2 µM)
- MIC (E. faecalis GC 2242; GC2242, read-out: MINIMAL INHIBITORY CONCENTRATION MIC, Human Serum): 4 µg/mL (≈ 5.05 µM)
- MIC (E. faecalis GC 2242; GC2242, read-out: MINIMAL INHIBITORY CONCENTRATION MIC, Mouse Serum): 2 µg/mL (≈ 2.53 µM)
- MIC (E. faecalis GC 2242; GC2242, read-out: MINIMAL INHIBITORY CONCENTRATION MIC, Water): 8 µg/mL (≈ 10.1 µM)
- MIC (S. pneumoniae* GC 4465; [1]): 2 µg/mL (≈ 2.53 µM)
- MIC (S. pneumoniae* GC 4465; [2]): 0.5 µg/mL (≈ 0.631 µM)
- MIC (S. pneumoniae* GC 4465; [3]): 1 µg/mL (≈ 1.26 µM)
- MIC (E. coli GC 4559; GC4559, read-out: MINIMAL INHIBITORY CONCENTRATION MIC, Human Serum): 32 µg/mL (≈ 40.4 µM)
- MIC (E. coli GC 4559; GC4559, read-out: MINIMAL INHIBITORY CONCENTRATION MIC, Mouse Serum): 2 µg/mL (≈ 2.53 µM)
- MIC (E. coli GC 4559; GC4559, read-out: MINIMAL INHIBITORY CONCENTRATION MIC, Water): > 64 µg/mL
- MIC (E. coli GC 2231; GC2231, read-out: MINIMAL INHIBITORY CONCENTRATION MIC, Human Serum): 32 µg/mL (≈ 40.4 µM)
- MIC (E. coli GC 2231; GC2231, read-out: MINIMAL INHIBITORY CONCENTRATION MIC, Mouse Serum): 2 µg/mL (≈ 2.53 µM)
- MIC (E. coli GC 2231; GC2231, read-out: MINIMAL INHIBITORY CONCENTRATION MIC, Water): > 64 µg/mL
- MIC (S. typhimurium GC 2172; [1]): 64 µg/mL (≈ 80.8 µM)
- MIC (S. typhimurium GC 2172; [2]): 8 µg/mL (≈ 10.1 µM)
- MIC (S. typhimurium GC 2172; [3]): > 64 µg/mL
- MIC (E. faecium GC 4556; GC4556, read-out: MINIMAL INHIBITORY CONCENTRATION MIC, Human Serum): 8 µg/mL (≈ 10.1 µM)
- MIC (E. faecium GC 4556; GC4556, read-out: MINIMAL INHIBITORY CONCENTRATION MIC, Mouse Serum): 2 µg/mL (≈ 2.53 µM)
- MIC (E. faecium GC 4556; GC4556, read-out: MINIMAL INHIBITORY CONCENTRATION MIC, Water): 8 µg/mL (≈ 10.1 µM)
- MIC (S. agalactiae GC 4564; GC4564, read-out: MINIMAL INHIBITORY CONCENTRATION MIC, Human Serum): 4 µg/mL (≈ 5.05 µM)
- MIC (S. agalactiae GC 4564; GC4564, read-out: MINIMAL INHIBITORY CONCENTRATION MIC, Mouse Serum): 1 µg/mL (≈ 1.26 µM)
- MIC (S. agalactiae GC 4564; GC4564, read-out: MINIMAL INHIBITORY CONCENTRATION MIC, Water): 2 µg/mL (≈ 2.53 µM)
- MIC (S. aureus GC 6466; GC6466, read-out: MINIMAL INHIBITORY CONCENTRATION MIC, Human Serum): 0.25 µg/mL (≈ 0.316 µM)
- MIC (S. aureus GC 6466; GC6466, read-out: MINIMAL INHIBITORY CONCENTRATION MIC, Mouse Serum): 0.25 µg/mL (≈ 0.316 µM)
- MIC (S. aureus GC 6466; GC6466, read-out: MINIMAL INHIBITORY CONCENTRATION MIC, Water): 1 µg/mL (≈ 1.26 µM)
- MIC (E. coli GC 2236; GC2236, read-out: MINIMAL INHIBITORY CONCENTRATION MIC, Human Serum): 32 µg/mL (≈ 40.4 µM)
- MIC (E. coli GC 2236; GC2236, read-out: MINIMAL INHIBITORY CONCENTRATION MIC, Mouse Serum): 2 µg/mL (≈ 2.53 µM)
- MIC (E. coli GC 2236; GC2236, read-out: MINIMAL INHIBITORY CONCENTRATION MIC, Water): > 64 µg/mL
- MIC (E. coli GC 2234; GC2234, read-out: MINIMAL INHIBITORY CONCENTRATION MIC, Human Serum): 32 µg/mL (≈ 40.4 µM)
- MIC (E. coli GC 2234; GC2234, read-out: MINIMAL INHIBITORY CONCENTRATION MIC, Mouse Serum): 1 µg/mL (≈ 1.26 µM)
- MIC (E. coli GC 2234; GC2234, read-out: MINIMAL INHIBITORY CONCENTRATION MIC, Water): > 64 µg/mL
- MIC (S. pneumoniae+ GC 4465; [1]): 2 µg/mL (≈ 2.53 µM)
- MIC (S. pneumoniae+ GC 4465; [2]): 1 µg/mL (≈ 1.26 µM)
- MIC (S. pneumoniae+ GC 4465; [3]): 1 µg/mL (≈ 1.26 µM)
- MIC (S. aureus GC 4536; GC4536, read-out: MINIMAL INHIBITORY CONCENTRATION MIC, Human Serum): 0.5 µg/mL (≈ 0.631 µM)
- MIC (S. aureus GC 4536; GC4536, read-out: MINIMAL INHIBITORY CONCENTRATION MIC, Mouse Serum): 0.5 µg/mL (≈ 0.631 µM)
- MIC (S. aureus GC 4536; GC4536, read-out: MINIMAL INHIBITORY CONCENTRATION MIC, Water): 1 µg/mL (≈ 1.26 µM)
SMILES: Cc1cc(C)cc(C(=O)OCOC(=O)N(CC(=O)Nc2cc(N(C)C)c3c(c2O)C(=O)C2=C(O)[C@]4(O)C(=O)C(C(N)=O)=C(O)[C@@H](N(C)C)[C@@H]4C[C@@H]2C3)C(C)(C)C)c1 [Example 51]
